The values that follow come from patent US12023311B2, “Delayed release pharmaceutical formulations comprising valproic acid, and uses thereof” (Cereno Scientific AB, priority 2016, dated 2024).

In series [1] the test system is PAI-1. Briefly: Proof-of-concept study in healthy subjects: plasma PAI-1 before and after valproic acid. Format: in vivo, human. To be noted: p<0.05. The method, then: (§1) The effects of VPA on PAI-1 were analysed in two different proof-of-concept studies in healthy subjects as well as in patients with manifest atherosclerotic disease. […] PAI-1 plasma levels were measured in the morning at the first day of the study as well as at the end of the treatment period with VPA (see example 2 for details on the PAI-1 analysis).
In the first study, 10 healthy non-smoking white male subjects (with mean BMI of approximately 26), aged 50-70 years were included and treated with valproic acid 500 mg (Ergenyl Retard. Sanofi) twice daily during 14 days.

The subject of series [2] is PAI-1. In words: Proof-of-concept study in patients with a history of myocardial infarction: plasma PAI-1 before and after valproic acid. Format: in vivo, human. To be noted: midmorning, p=0.01; for reduction in circulating plasma PAI-1 levels: 16 male patients aged 50-80 with history of myocardial infarction, valproic acid 500 mg (Ergenyl Retard, Sanofi) twice daily 28 days on top of ordinary prescription. The method, then:
as §1
In the second study, 16 non-smoking white male patients, aged 50-80 years with a history of a myocardial infarction were included. On top of their ordinary prescription (beta-blocker, ACE-inhibitor, statin, aspirin) they were treated with valproic acid 500 mg (Ergenyl Retard, Sanofi), twice daily during 28 days.

Series [3] relates to PAI-1. In words: Intermediate endpoint study in patients with TIA/minor stroke: plasma PAI-1 levels. Format: in vivo, human. To be noted: 20 patients with TIA/minor stroke; 400 mg valproic acid enteric-coated tablet with delayed absorption, once daily at 11 pm for 2 weeks. The method, then: (§2) An intermediate endpoint proof-of-concept study is performed in patients with TIA/minor stroke investigated before and after treatment with Valproic acid. Valproic acid is administrated as an enteric-coated tablet with delayed absorption.
(§3) The study comprises 20 patients with TIA/minor stroke. Patients are investigated before and after oral treatment with 400 mg valproic acid once time daily at 11 pm for 2 weeks. Plasma PAI-1 levels and plasma concentrations of valproic acid is followed daily during the study period at the following time-points: 3 am, 6 am, 10 am, 16 pm, 22 pm PAI-1 levels are measured by commercially available ELISA-kits (Coaliza PA-1, Chromogenix AB) and the plasma concentration of valproic acid an metabolites thereof is analyzed according to clinical routine at the Sahlgrenska University laboratory, Gothenburg, Sweden.

A short description of series [4]: Intermediate endpoint study in patients with TIA/minor stroke: plasma concentration of valproic acid. Format: in vivo, human. To be noted: 400 mg enteric-coated tablet with delayed absorption, oral, once daily at 11 pm, clock time. How it is done:
as §2, §3

For series [5], the system named is PAI-1. To be noted: cultured endothelial cells; no decrease of PAI-1 mRNA levels after VPA treatment; slight but significant; cited from earlier work.
The test system of series [6] is PAI-1. To be noted: in vivo model in pig (Svennerholm et al. 2014); cited from earlier work.
The subject of series [7] is PAI-1. To be noted: in vivo model in mouse (Larsson, Alwis et al. 2016); cited from earlier work.

Where two headings read alike, the source gives them in different places.

With `CCCC(CCC)C(=O)O` [valproic acid, 2-propylpentanoic acid], the “reduction in circulating plasma PAI-1 levels” value in series [1] (10 healthy non-smoking male subjects aged 50-70, valproic acid 500 mg (Ergenyl Retard, Sanofi) twice daily 14 days, mid-morning vs before treatment) is on record as “more than 50%”; in series [2] it was 45%; in series [2] (listed as VPA), “about 45%”. The “circulating plasma PAI-1 level after treatment” value stood at 10.8 ng/mL in series [1] (healthy male subjects, 500 mg (Ergenyl Retard) twice daily 14 days, mid-morning, from 22.2 ng/ml before treatment) and 11 ng/mL in series [2] (patients with history of myocardial infarction, 500 mg (Ergenyl Retard) twice daily 28 days, from 19.6 ng/ml before treatment). The “plasma PAI-1 levels lowered after the treatment” value in series [3] was “approximately 30%”. Further, the “time of peak plasma concentration of valproic acid” value in series [4] is “peak between 3 am and 6 am”. Further, the “increase in PAI-1 production” value in series [5] was 30%. For the same compound, the “effects on plasma PAI-1” value in series [6] and in series [7] was “did not detect any effects” in each case.
